Measured values: patent US10767160B2, “Methods for modulating production profiles of recombinant proteins” (ARES TRADING S.A., priority 2015, dated 2020)
Read-outs that look alike come from different tables or passages of the source.

Experiments:
[1] = test system: CHO-S cells expressing IgG1 mAb1; experiment: Fed-batch culture in microplates, host cells expressing mAb1; assay type: cell-based, Chinese Hamster
Description: (§1) Assays were performed with 2 CHO cell lines: • CHO-S cells expressing IgG1 mAb1, herein “Cells mAb1” or “mAb1 cells”. “mAb1” is a fully human monoclonal antibody directed against a soluble protein. Its isoelectric point (pI) is about 8.20-8.30. • CHO-K1 cells expressing IgG1 mAb2, herein “Cells mAb2” or “mAb2 cells”. “mAb2” is a humanised monoclonal antibody directed against a receptor found on the cell membrane. Its isoelectric point (pI) is about 9.30. 2) Cell Expansion
(§2) Cells expressing mAb2 were inoculated at 0.2×10^6 cells per millilitre (mL), whereas cells expressing mAb1 were inoculated at 0.3×10^6 cells per mL.
(§3) All assays were performed in fed-batch culture. The host cells were cultured in fed-batch system either in microplates (“Deep well plate”) or in Spin Tubes®, and incubated at 36.5° C., 90% relative humidity, 5% CO2 and 320 rpm shaking during 14 days.
(§4) Viable cell density and viability were measured with the Guava easyCyte® flow cytometer or with the ViCell.
(§5) Antibody titres were measured with the fortêBIO Octet® or with Biacore C®.
(§6) Glycosylation profiles were established by capillary gel electrophoresis with laser-induced fluorescence (CGE-LIF). Dosages of aggregates and fragments were performed respectively via Size Exclusion High Performance Liquid Chromatography (SE-HPLC) and SDS-capillary gel electrophoresis.

[2] = test system: CHO-S cells expressing IgG1 mAb1; experiment: Fed-batch culture in Spin Tubes, host cells expressing mAb1; assay type: cell-based, Chinese Hamster
Description: as §1, §2, §3, §4, §5, §6

[3] = test system: CHO-K1 cells expressing IgG1 mAb2; assay type: cell-based, Chinese Hamster
Description: as §1, §2, §3, §4, §5, §6

recombinant CHO cells [4] = details: perfusion batch culture, within 6 days of treatment; cited from earlier work
recombinant CHO cells [5] = details: batch culture, end of production run, after 8 days of culture; cited from earlier work
[6] = about 167 μM or about 417 μM, microplates
[7] = up to 25 μM and 41.7 μM, microplates
[8] = similar concentrations (8.5 μM), Spin tubes
[9] = about 0.4 μM to about 17 μM, microplates
[10] = about 83 μM to about 833 μM, microplates
[11] = about 4.3 and/or about 8.5 μM, Spin Tubes

Nc1c(S(=O)(=O)O)cc(Nc2ccc(Nc3nc(Cl)nc(Nc4ccccc4S(=O)(=O)O)n3)c(S(=O)(=O)O)c2)c2c1C(=O)c1ccccc1C2=O [Cibacron Blue 3GA]
titre ([1]; about 83 μM, microplates): still significantly increased
cell viability [1, 6]: decreased
titre [1, 6]: impact on the titre was observed
quantity of secreted recombinant protein (titre) compared to control ([1]; about 8.3 to about 41.7 μM, microplates): 1.5 fold
titre [1, 7]: increased significantly
viable cell density [1, 7]: increased significantly
specific productivity ([2]; 8.5 μM, Spin tubes): significantly increased
titre increase at the end of the culture ([2]; 8.5 μM, Spin tubes): 1.25 factor
maximum density of viable cells ([2]; 8.5 μM, days 6-9, Spin tubes): increased
viability compared to control ([2]; 8.5 μM, starting on day 7, Spin tubes): decrease of viability
productivity of antibodies mAb2 [3, 8]: increased
titre multiplied at the end of cell culture [3, 8]: 1.2

O=S(=O)(O)c1cc(Nc2nc(Cl)nc(Nc3ccc(Nc4nc(Cl)nc(Nc5cc(S(=O)(=O)O)cc6cc(S(=O)(=O)O)c(N=Nc7ccccc7S(=O)(=O)O)c(O)c56)n4)cc3)n2)c2c(O)c(N=Nc3ccccc3S(=O)(=O)O)c(S(=O)(=O)O)cc2c1 [Reactive Red 120]
viable cell density increase compared to control ([1]; 17.3 μM, day 7, microplates): 1.5 factor
titre increase compared to control ([1]; 17.3 μM, day 14, microplates): 1.3 factor
maximum titre relative to control cells ([1]; 83 μM, microplates): 1.2 fold
cell viability [1, 9]: (slightly) reduced
titre [1, 9]: increased significantly
viable cell density [1, 9]: increased significantly
toxicity limit ([1]; about 17 μM, microplates): did not seem to have been reached
cell viability [1, 10]: decrease significantly
titre [1, 10]: remained superior or equal to what was obtained with control cells
viable cell density [1, 10]: decrease significantly
toxicity ([1]; above 83 μM, microplates): becomes toxic
titre increase ([2]; 8.6 μM, Spin Tubes): 1.2 factor
cell viability compared to control ([2]; about 4.3 and/or about 8.5 μM, after day 10, Spin Tubes): only slightly affected
viable cell density ([2]; about 4.3 and/or about 8.5 μM, days 5-9, Spin Tubes): increased
specific productivity [3, 11]: increase
titre [3, 11]: increase
viability compared to control ([3]; until the end of the culture, Spin Tubes): maintained

CCCC(=O)[O-].[Na+] [sodium butyrate]
cell viability (recombinant CHO cells [4]): 15%
cell viability (recombinant CHO cells [5]): less than 45%
